Patent publication US20080234498A1, “Pyrovalerone Analogues and Therapeutic Uses Thereof” (PRESIDENT AND FELLOW OF HARVARD COLLEGE, priority 2003, published 2008)
Where a name gives a salt, the structure may show the parent alone. Read-outs that look alike come from different tables or passages of the source. Marks after values point to notes of the source that are not given here.

Experiments:
[1] = target: dopamine transporter (DAT) (Homo sapiens, UniProt Q01959); test: Radioreceptor assay, inhibition of (3H)WIN 35,428 binding to the dopamine transporter
Sequence of dopamine transporter (DAT) (Q01959 whole entry, species assumed): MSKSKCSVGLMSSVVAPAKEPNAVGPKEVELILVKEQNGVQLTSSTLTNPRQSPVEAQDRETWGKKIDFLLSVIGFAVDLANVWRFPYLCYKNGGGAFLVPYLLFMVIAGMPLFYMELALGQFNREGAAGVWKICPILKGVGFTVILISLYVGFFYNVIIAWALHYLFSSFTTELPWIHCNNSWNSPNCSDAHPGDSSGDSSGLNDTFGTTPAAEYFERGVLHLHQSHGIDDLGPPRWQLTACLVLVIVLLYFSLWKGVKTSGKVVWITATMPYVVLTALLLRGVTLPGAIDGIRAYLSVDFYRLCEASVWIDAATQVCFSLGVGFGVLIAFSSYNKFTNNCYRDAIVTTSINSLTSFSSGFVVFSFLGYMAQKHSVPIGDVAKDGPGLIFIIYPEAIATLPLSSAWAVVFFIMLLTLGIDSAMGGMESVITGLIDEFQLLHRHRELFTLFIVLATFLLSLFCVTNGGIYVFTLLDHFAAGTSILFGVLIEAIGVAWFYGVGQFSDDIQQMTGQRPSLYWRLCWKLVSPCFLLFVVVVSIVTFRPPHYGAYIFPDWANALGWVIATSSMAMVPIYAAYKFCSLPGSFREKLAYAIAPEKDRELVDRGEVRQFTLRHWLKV
Description: Dysfunction of dopamine neurons has been implicated in several neuropsychiatric diseases. Imaging of the dopamine neurons offers important clinical information relevant to diagnosis and therapeutic treatments. Dopamine neurons produce dopamine, release the neurotransmitter and remove the released dopamine with a dopamine transporter protein. Compounds that bind to the dopamine transporter are effective measures of dopamine neurons and can be transformed into imaging agents for PET and for SPECT imaging (see, e.g., Example 70, infra, for use of PET imaging). In identifying a suitable compound for the dopamine transporter, an essential first step is to measure the affinity and selectivity of a candidate at the dopamine transporter. The affinity can be measured by conducting radioreceptor assays. A radiolabeled marker for the transporter, e.g., (^3H)WIN 35,428, is incubated with the unlabeled candidate and a source of the transporter, usually brain striatum. The effect of various concentrations of the candidate on inhibiting (^3H)WIN 35,428 binding is quantified. The concentration of the compound that inhibits 50% of (^3H)WIN 35,428 bound to the transporter (IC50 value) is used as a measure of its affinity for the transporter. A suitable range of concentrations of the candidate typically is about 1 nM up to about 100 nM, more preferably 1 to 10 nM.
(§1) ^3H-WIN 35,428 (^3H-CFT, 2β-carbomethoxy-3β-(4-fluorophenyl)-N-^3H-methyltropane, 79.4-87.0 Ci/mmol) and ^3H-citalopram (86.8 Ci/mmol) is purchased from DuPont-New England Nuclear (Boston, Mass.). HPLC analyses are carried out on a Waters 510 system with detection at 254 nm on a Chiralcel OC column (flow rate: 1 mL/min).

dopamine transporter = target: T1, dopamine transporter (Macaca mulatta, UniProt Q7JHP9); test: Dopamine transporter occupancy by PET imaging with [11C]CFT; format: in vivo, Rhesus monkeys; settings: for Brain entry and occupancy of DAT sites (in words): living brain, PET imaging, cerebellum as the negative control; for [11C]CFT with Compound (binding potential) / % Occupancy / % Occupancy, cerebellum levels considered background: rhesus monkey; for [11C]CFT with Compound (binding potential): compound intravenously, PET one hour after administration; for % Occupancy / % Occupancy, cerebellum levels considered background: i.v., one hour; for % Occupancy: from reduced [11C]CFT binding potential vs baseline; for % Occupancy, cerebellum levels considered background: reduced to levels of cerebellum = full occupancy
T1 construct: occupy the dopamine transporter in living brain; from tissue; host or cells: living brain of rhesus monkeys (in vivo PET)
T1 sequence (Q7JHP9 1-620): as the sequence (Q01959 whole entry, species assumed) above, with V24M, I137V, P194S, S198G, D200N, S201G, S202P counted along it
Protocol: As the compounds of the invention are high affinity ligands for the dopamine transporter, we determined whether they occupy the dopamine transporter in living brain within 1 hour of administration. To monitor occupancy of the dopamine transporter, PET imaging was conducted with the high affinity dopamine transporter probe [11C]CFT ([11C]WIN 35,428). Rhesus monkeys were anesthetized with ketamine and xylazine and an indwelling intravenous catheter was placed in a leg vein. DAT density (binding potential) was acquired with [11C]CFT to obtain baseline levels. Immediately following completion of the imaging session, monkeys were administered the test compound intravenously via the indwelling catheter and PET imaging was conducted one hour after administration. Imaging data from the pre- and post-drug session were compared and occupancy was calculated on the basis of reduced [11C]CFT binding potential one hour or longer after administration of the compound. The following table (Table 1) summarizes pilot data from this study.

[2] = target: serotonin transporter (SERT) (Homo sapiens, UniProt P31645); test: Radioreceptor assay, inhibition of (3H)citalopram binding to the serotonin transporter
Sequence of serotonin transporter (SERT) (P31645 whole entry, species assumed): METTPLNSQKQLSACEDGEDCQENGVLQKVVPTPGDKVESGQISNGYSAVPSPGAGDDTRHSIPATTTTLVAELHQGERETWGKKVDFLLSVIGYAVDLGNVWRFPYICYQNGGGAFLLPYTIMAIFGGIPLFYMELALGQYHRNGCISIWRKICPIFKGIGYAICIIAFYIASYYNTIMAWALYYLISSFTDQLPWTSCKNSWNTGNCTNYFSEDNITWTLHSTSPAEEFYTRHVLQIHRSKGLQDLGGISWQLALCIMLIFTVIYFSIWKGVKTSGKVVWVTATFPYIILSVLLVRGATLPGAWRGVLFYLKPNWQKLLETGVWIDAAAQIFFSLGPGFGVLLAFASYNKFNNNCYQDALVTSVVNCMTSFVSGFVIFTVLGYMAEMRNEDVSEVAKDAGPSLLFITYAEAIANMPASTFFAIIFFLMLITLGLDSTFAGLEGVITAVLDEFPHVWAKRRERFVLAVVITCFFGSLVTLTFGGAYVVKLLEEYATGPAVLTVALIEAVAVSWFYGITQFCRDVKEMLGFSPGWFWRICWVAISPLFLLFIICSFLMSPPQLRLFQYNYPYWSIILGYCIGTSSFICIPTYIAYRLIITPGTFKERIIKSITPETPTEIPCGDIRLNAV
Protocol: The serotonin transporter is also detectable in the striatum, the brain region with the highest density of dopamine neurons and in brain regions surrounding the striatum. […] Therefore, a measure of probe affinity of the serotonin transport is conducted by assays paralleling the dopamine transporter assays.
as §1

**Q.** With `CCCC(C(=O)c1ccc(-c2cccs2)cc1)N1CCCC1` (centres unmarked) (as salt: salt) as the molecule, how does the melting point read?
**A.** 220 °C (dec.)

**Q.** For `CCCC(C(=O)c1ccc(NC(C)=O)cc1)N1CCCC1` (centres unmarked) (as salt: salt), which melting point is on record?
**A.** 195 °C (dec.)

**Q.** Which melting point does the source give for `CCCC(C(=O)c1ccc([N+](=O)[O-])cc1)N1CCCC1` (centres unmarked) (as salt: salt) here?
**A.** 189 °C (dec.)

**Q.** Which melting point does the source give for `CCCC(C(=O)c1cccc(C)c1)N1CCCC1` (centres unmarked) (as salt: salt) here?
**A.** 166 °C (dec.)

**Q.** For `CCCC(C(=O)c1ccc(C(F)(F)F)cc1)N1CCCC1` (centres unmarked) (as salt: salt), which melting point is on record?
**A.** 228 °C (dec.)

**Q.** Which melting point does the source give for `CCCC(C(=O)c1ccc2ccccc2c1)N1CCCC1` (centres unmarked) (as salt: salt) here?
**A.** 221 to 223 °C (dec.)

**Q.** Which melting point does the source give for `CCCC(C(=O)c1ccc(I)cc1)N1CCCC1` (centres unmarked) (as salt: salt) here?
**A.** 218 °C (dec.)

**Q.** Which melting point does the source give for `Cc1ccc(C(=O)C(CC(C)C)N2CCCC2)cc1` (centres unmarked) (as salt: salt) here?
**A.** 218 °C (dec.)

**Q.** Which melting point does the source give for `CCCC(C(=O)c1ccc(OC)c(OC)c1)N1CCCC1` (centres unmarked) (as salt: salt) here?
**A.** 177 °C (dec.)

**Q.** With `CC#Cc1ccc(C(=O)C(CCC)N2CCCC2)cc1` (centres unmarked) (as salt: salt) as the molecule, how does the melting point read?
**A.** 231 °C (dec.)

**Q.** Which melting point does the source give for `CCCC(C(=O)c1ccc(F)cc1)N1CCCC1` (centres unmarked) (as salt: salt) here?
**A.** 218 °C (dec.)

**Q.** For `CCC(C(=O)c1ccc(Cl)c(Cl)c1)N1CCCC1` (centres unmarked) (as salt: salt), which melting point is on record?
**A.** 211 °C (dec.)

**Q.** Which melting point does the source give for `CCCC(C(=O)c1ccc(Cl)c(Cl)c1)N1CCCCC1` (centres unmarked) (as salt: salt) here?
**A.** 202 °C (dec.)

**Q.** With `CCCC(C(=O)c1cccc(I)c1)N1CCCC1` (centres unmarked) (as salt: salt) as the molecule, how does the melting point read?
**A.** 203 °C (dec.)

**Q.** For `CCC(CC(=O)c1ccc(Cl)c(Cl)c1)N1CCCC1` (centres unmarked) (as salt: salt), which melting point is on record?
**A.** 104 to 107 °C (dec.)

**Q.** Which melting point does the source give for `CCC(CC(=O)c1ccc(C)cc1)N1CCCC1` (centres unmarked) (as salt: salt) here?
**A.** 97 °C (dec.)

**Q.** With `CCCC(C(=O)c1ccc(O)c(O)c1)N1CCCC1` (centres unmarked) (as salt: salt) as the molecule, how does the melting point read?
**A.** 181 to 182 °C

**Q.** For `CCCC(C(=O)c1ccc(C#N)cc1)N1CCCC1` (centres unmarked) (as salt: salt), which melting point is on record?
**A.** 197 to 199 °C (dec.)

**Q.** For `C#CCC(C(=O)c1ccc(C)cc1)N1CCCC1` (centres unmarked) (as salt: salt), which melting point is on record?
**A.** 178 °C (dec.)

**Q.** With `CCCC(C(=O)c1ccc(CO)cc1)N1CCCC1` (centres unmarked) (as salt: salt) as the molecule, how does the melting point read?
**A.** 186 to 187 °C (dec.)

**Q.** For `CCCC(N1CCCC1)C(O)(Cc1ccccc1)c1ccc(C)cc1` (centres unmarked) (as salt: salt), which melting point is on record?
**A.** 211 °C (dec.)

**Q.** Which melting point does the source give for `C=CCC(C(=O)c1ccc(C)cc1)N1CCCC1` (centres unmarked) (as salt: salt) here?
**A.** 196 °C (dec.)

**Q.** With `CCCC(C(=O)c1ccc(C(=O)OC)cc1)N1CCCC1` (centres unmarked) (as salt: salt) as the molecule, how does the melting point read?
**A.** 202 °C (dec.)

**Q.** Which melting point does the source give for `CCCC(C(=O)c1ccc(Cl)c(Cl)c1)N1CCCC1` (centres unmarked) (as salt: salt) [Compound O-2390, 2-Pyrrolidin-1-yl-1-(3,4-Dichloro-phenyl)-pentan-1-one] here?
**A.** 195 °C (dec.)

**Q.** For `CCCC(C(=O)c1ccc(Br)cc1)N1CCCC1` (centres unmarked) (as salt: salt) [Compound O-2419, 2-Pyrrolidin-1-yl-1-(4′-bromo-phenyl)-pentan-1-one], which melting point is on record?
**A.** 200 °C (dec.)

**Q.** Which melting point does the source give for `CCCC(C(=O)c1ccc(C)cc1)N1CCCC1` (racemic) (as salt: salt) [Compound O-2371, 2-Pyrrolidin-1-yl-1-p-tolyl-pentan-1-one] here?
**A.** 180 °C (dec.)

**Q.** Which results are given for `CCCC(C(=O)c1ccc(C)cc1)N1CCCC1` (racemic) [Compound O-2371, 2-Pyrrolidin-1-yl-1-p-tolyl-pentan-1-one]?
**A.** IC50 [1]: 8 nM; Brain entry and occupancy of DAT sites (in words) (dopamine transporter): most efficient in entering the brain and occupying the majority of DAT sites; [11C]CFT with Compound (binding potential) (dopamine transporter): 0.4551; % Occupancy (dopamine transporter): 74%; % Occupancy, cerebellum levels considered background (dopamine transporter): 100* %

**Q.** Which IC50 ([1]; affinity column of the PET occupancy table, read-out: DAT Affinity) does the source give for `CCCC(C(=O)c1ccccc1)N1CCCC1` (centres unmarked) [Compound O-2387, 2-Pyrrolidin-1-yl-phenyl-pentan-1-one] here?
**A.** 13 nM

**Q.** And the “[11C]CFT with Compound (binding potential)” value (“[11C]CFT with Compound” below) (dopamine transporter)?
**A.** 0.7885

**Q.** What about the “% Occupancy” value (dopamine transporter) of the same molecule?
**A.** 64%

**Q.** With `CCCC(C(=O)c1ccc(Cl)c(Cl)c1)N1CCCC1` (centres unmarked) [Compound O-2390, 2-Pyrrolidin-1-yl-1-(3,4-Dichloro-phenyl)-pentan-1-one] as the molecule, how does the IC50 [1] read?
**A.** 8 nM

**Q.** And the “[11C]CFT with Compound” value (dopamine transporter)?
**A.** 0.5898

**Q.** What about the “% Occupancy” value (dopamine transporter) of the same molecule?
**A.** 56%

**Q.** With `CCCC(C(=O)c1ccc(Br)cc1)N1CCCC1` (centres unmarked) [Compound O-2419, 2-Pyrrolidin-1-yl-1-(4′-bromo-phenyl)-pentan-1-one] as the molecule, how does the IC50 [1] read?
**A.** 8 nM

**Q.** And the “[11C]CFT with Compound” value (dopamine transporter)?
**A.** 1.6025

**Q.** What about the “% Occupancy” value (dopamine transporter) of the same molecule?
**A.** 33%

**Q.** Which IC50 [1] does the source give for `CCC[C@@H](C(=O)c1ccc(C)cc1)N1CCCC1` [Compound O-2442, (2S)-2-Pyrrolidin-1-yl-1-p-tolyl-pentan-1-one] here?
**A.** 3 nM

**Q.** And the “DAT inhibition potency, comparison of enantiomers” value ([1]; 2S versus 2R enantiomer)?
**A.** more potent DAT inhibitor than the 2R-enantiomer

**Q.** What about the IC50 [2] of the same molecule?
**A.** > 4000 nM

**Q.** What about the “Brain entry and occupancy of DAT sites (in words)” value (dopamine transporter) of the same molecule?
**A.** most efficient in entering the brain and occupying the majority of DAT sites

**Q.** What about the “[11C]CFT with Compound” value (dopamine transporter) of the same molecule?
**A.** 0.6112

**Q.** And the “% Occupancy” value (dopamine transporter)?
**A.** 70%

**Q.** And the “% Occupancy, cerebellum levels considered background” value (dopamine transporter)?
**A.** 100* %
